In patent US20190321345A1, “GLUT4 Selective Inhibitors for Cancer Therapy” (Emory University, priority 2016, published 2019):

Experiments:
KMS11-GFP cells = assay: Proliferation of KMS11-GFP myeloma cells (Cell Titre Glo); format: cell-based
Procedure: (§1) IC50 studies were performed using the CellTiter-Glo assay (Promega, Madison, Wis.). 20,000 cells in 100 ul complete RPMI 1640 medium were plated per well in 96-well plates, with a concentration range of individual compounds. After 72 h incubation, 100 uL Glo reagent were added to each well and luminescence was measured using a Biotek Synergy 4 multimode plate reader. Cell number was assessed by trypan blue standing and an automatic cell counter (Biorad). For cell viability assays 0.125×10^6 cells/mL were treated with the indicated concentration of drug, washed with 1×PBS and evaluated for viability by AnnexinV/DAPI staining and flow cytometry. Data analysis was per-formed with the FCS express version 3 (De Novo software, Los Angeles).
(§2) Compound were selected as a lead based on its low IC50, selectivity for inhibition of glucose transport through GLUT4, and inhibition of the KMS11-GFP cell line proliferation in contrast to the GLUT1 expressing isogenic line. Compounds were assessed in a high-throughput proliferation-based assay using an isogenic MM (KMS11) cell line pair overexpressing GLUT1 or GFP (as a control) (model of screen is depicted in FIG. 2A). […] Isogenic KMS11-GFP/GLUT1 overexpressing myeloma cell lines were treated with a dose range of the indicated test compound for 72 hours followed by evaluation of viable cell number by Cell Titre Glo assay

KMS11-GLUT1 cells = assay: Proliferation of KMS11-GLUT1 myeloma cells (Cell Titre Glo); format: cell-based; details: inhibition of proliferation, 72 hours
Procedure: as §1, §2

KMS11 cells = assay: Cell viability by AnnexinV/DAPI staining and flow cytometry in KMS11 cells; format: cell-based; details: compared with compounds 8, 9, 17
Procedure: as §1
They were selected and their effect on cell viability evaluated by AnnexinV/DAPI staining and flow cytometric analysis.

GLUT4 = target: T1, GLUT4 (Homo sapiens, UniProt P14672); assay: 2-DOG transport in HEK293 cells over-expressing GLUT4; format: cell-based; details: for IC50: pre-treated 5 minutes, 2-DOG uptake 4 min, cells lacking GLUT1, read-out: IC50 (inhibition of 2-DOG transport in HEK cells over-expressing GLUT isoforms) GLUT4
T1 construct: expressed in transfected cells; host or cells: HEK293 stably expressing GLUT1 shRNA
T1 sequence (P14672 1-509): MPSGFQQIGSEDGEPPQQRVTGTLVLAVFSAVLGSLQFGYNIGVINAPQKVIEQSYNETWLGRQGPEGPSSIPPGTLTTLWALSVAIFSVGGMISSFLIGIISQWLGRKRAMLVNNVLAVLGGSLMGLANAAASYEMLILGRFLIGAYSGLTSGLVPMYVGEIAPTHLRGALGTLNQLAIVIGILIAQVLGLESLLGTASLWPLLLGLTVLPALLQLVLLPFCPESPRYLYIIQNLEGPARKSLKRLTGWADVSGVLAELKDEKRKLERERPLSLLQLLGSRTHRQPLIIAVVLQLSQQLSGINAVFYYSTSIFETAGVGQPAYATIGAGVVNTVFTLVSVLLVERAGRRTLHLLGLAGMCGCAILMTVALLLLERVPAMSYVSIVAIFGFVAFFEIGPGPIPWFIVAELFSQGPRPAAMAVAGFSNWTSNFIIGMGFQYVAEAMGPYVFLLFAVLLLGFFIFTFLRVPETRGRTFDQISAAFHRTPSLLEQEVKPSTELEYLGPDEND
Procedure: (§3) Tissue culture plates were pretreated with 25 μg/ml polyethyleneimine (Fluka, catalogue number P3143) in 150 mM NaCl for 20min to let cells adhere. JNN3 cells were subsequently plated and grown to 40-60% confluency in complete RPMI 1640 medium. HEK293 GLUT overexpressing cells were plated at 400,000 cells/ml overnight. Cells were then washed with glucose-free HEPES buffer twice and starved for 30 min. The uptake of 2-[^3H] deoxy-D-glucose (2-DOG) (50 μM) was measured in glucose-free HEPES buffer for 4-6 min at 37° C. Compound 20 (20 μM) was added 5-6 min prior to the addition of glucose depending on the specific assay. For the HEK293 GLUT overexpressing cells, non-specific uptake was measured in non-transfected HEK293 cells containing the shRNA GLUT1 knockdown and was subtracted from the experimental values. Data are plotted as percent uptake relative to unexposed HEK293 cultures. Data were normalized to fit by nonlinear regression analysis using GraphPad Prism software.
(§4) Compound 20 was further screened for GLUT4 selectivity by evaluating inhibition of glucose transport in HEK 293 cells exogenously over-expressing human GLUTs-1, -2, -3, -4, or -8 that also stably express GLUT1 shRNA (except the GLUT1 overexpressing cell line) to knock down endogenous GLUT1.
(§5) Glucose transport in HEK293 cells over-expressing GLUT1 or over-expressing GLUT4 or GLUT8 in cells lacking GLUT1 were used to evaluate inhibition of glucose transport. Cells were pre-treated with compound for 5 minutes followed by evaluation of […] uptake for 4 min at […]. Non-specific uptake was measured in nontransfected HEK293 cells containing the shRNA GLUT1 knockdown and was subtracted from the experimental values.

JJN3 cells [1] = assay: 2-[3H]deoxyglucose uptake in JJN3 cells; format: cell-based; details: 20 μM, 6 min pre-treatment, 6 min uptake at 37 degrees C; compared with GLUT4 shRNA
Procedure: as §3
(§6) Impact of compound 20 was evaluated on glucose uptake in MM cells.

[2] = system: JJN3 cells expressing GLUT4 shRNA; assay: Viability/proliferation of JJN3 cells with GLUT4 shRNA (trypan blue, cell counter); format: cell-based; details: 15 μM, 72 hours
Procedure: as §1, §6

MCL-1 = assay: Immunoblot of MCL-1 expression in MM cells; format: cell-based; details: L363 cells vs JJN3, 15 μM for 18 hours
L363 cells = assay: Cell death with ABT-199 co-treatment in L363 cells (AnnexinV/DAPI); format: cell-based; details: 10 μM with 0.025 μM-3 μM ABT-199, 72 hours
Procedure: Compound 20 decreasing MCL-1 expression and sensitizing MM cell lines to Venetoclax (ABT-199),
(§7) Cell death was evaluated by AnnexinV/DAPI flow cytometric staining.
as §1, with “Data analysis was per-formed with the FCS express version 3 (De Novo software, Los Angeles).” left out
(§8) KD of GLUT4 and glucose deprivation lead to variable suppression of the pro-survival anti-apoptotic protein MCL-1. […] Compound 20 was evaluated for sensitizing MM patient samples to ABT-199. CD38+/CD45− gated myeloma cells from myeloma patient bone marrow aspirates were evaluated for viability after 48 hrs of treatment. […] To rule out the cytotoxic effect of co-treatment of compound 20 with either ABT-199 or dexamethasone on other non-myeloma cell populations, cell viability of CD38−/CD45− and CD38−/CD45+ cells were analyzed within the MM patient sample bone marrow aspirate (FIG. 6G). […]

JJN3 cells [3] = assay: Cell death with ABT-199 co-treatment in JJN3 cells (AnnexinV/DAPI); format: cell-based; details: co-treatment with ABT-199
Procedure: as §7, §1, §8

[4] = system: CD38+/CD45- gated myeloma cells from myeloma patient bone marrow aspirates; assay: Cell death of myeloma cells from MM patient bone marrow aspirates; format: cell-based, human
Procedure: CD38-phyocerythrin and CD45-allophycocyanin-Cy7 positive myeloma cells were evaluated for cell death.
(§9) KD of GLUT4 and glucose deprivation lead to variable suppression of the pro-survival anti-apoptotic protein MCL-1. […] Cells resistant to glucose deprivation-induced cell death increase binding of pro-apoptotic BIM to BCL-2, facilitating sensitization to the BH3 mimetic venetoclax (ABT-199). 22 Treatment of glucose-deprived resistant cells with ABT-199 releases the additional BIM bound to BCL-2, inducing apoptosis. […] Compound 20 was evaluated for sensitizing MM patient samples to ABT-199. CD38+/CD45− gated myeloma cells from myeloma patient bone marrow aspirates were evaluated for viability after 48 hrs of treatment. […] The ability of compound 20 to sensitize MM cells and induce cell death to the commonly used steroid dexamethasone (Dex) was tested. […] To rule out the cytotoxic effect of co-treatment of compound 20 with either ABT-199 or dexamethasone on other non-myeloma cell populations, cell viability of CD38−/CD45− and CD38−/CD45+ cells were analyzed within the MM patient sample bone marrow aspirate (FIG. 6G). […] Lastly, compound 20 was also found to sensitize MM.15 cells to a dose range of the alkylating agent melphalan (Mel) that was assessed in a 72 hr treatment period (FIG. 6H).

MM.1S cells = assay: Cell death with dexamethasone or melphalan co-treatment in MM.1S cells (AnnexinV/DAPI); format: cell-based; details: 72 hr
Procedure: as §7, §1, §8

[5] = system: CD38-/CD45- and CD38-/CD45+ cells; assay: Viability of normal non-myeloma cell populations in MM patient bone marrow aspirate; format: cell-based; details: in combination with either ABT-199 or Dex
Excerpt: Data from patient #6 is representative of patient samples evaluated.
as §9, with “tested. Compound 20 treated MM.1S cells were exposed to a dose range of Dex (0.00195 μM to 1 μM) for 72 hr (FIG. 6E).” for “tested.”

[6] = system: follower lung cancer cell; assay: Follower lung cancer cell invasion; format: cell-based; details: FIG. 7
FAK = FAK activation, scratch assay; format: cell-based; details: FIG. 8
GLUT8 = target: T2, GLUT8 (Homo sapiens, UniProt Q9NY64); assay: 2-DOG transport in HEK293 cells over-expressing GLUT8; format: cell-based; details: pre-treated 5 minutes, 2-DOG uptake 4 min; cells lacking GLUT1; read-out: IC50 (inhibition of 2-DOG transport in HEK cells over-expressing GLUT isoforms) GLUT8
T2 construct: expressed in transfected cells; host or cells: HEK293 stably expressing GLUT1 shRNA
T2 sequence (Q9NY64 1-477): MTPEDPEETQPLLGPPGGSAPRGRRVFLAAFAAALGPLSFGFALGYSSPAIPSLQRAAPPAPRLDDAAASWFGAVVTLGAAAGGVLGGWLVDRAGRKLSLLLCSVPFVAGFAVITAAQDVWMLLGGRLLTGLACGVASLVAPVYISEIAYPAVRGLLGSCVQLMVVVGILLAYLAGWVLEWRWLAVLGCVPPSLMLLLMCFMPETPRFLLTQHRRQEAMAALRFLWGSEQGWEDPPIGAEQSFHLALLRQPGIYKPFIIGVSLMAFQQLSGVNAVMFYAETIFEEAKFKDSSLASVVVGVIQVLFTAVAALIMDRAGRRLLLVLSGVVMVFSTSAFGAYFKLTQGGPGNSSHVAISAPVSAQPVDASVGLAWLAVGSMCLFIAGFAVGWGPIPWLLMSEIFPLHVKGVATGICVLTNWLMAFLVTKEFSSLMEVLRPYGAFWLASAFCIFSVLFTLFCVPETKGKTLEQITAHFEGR
Procedure: as §3, §4, §5

H1299 cell = H1299 cell invasion; format: cell-based, human; details: FIG. 9

| Compound | EC50 (KMS11-GFP cells; inhibition of proliferation, 72 hours, Cell Titre Glo) | impact on proliferation in KMS11-GFP cells compared with KMS11-GLUT1 cells (KMS11-GFP cells; isogenic cell line pair) | EC50 (KMS11-GLUT1 cells) | cell death in KMS11 cells (KMS11 cells) | selectivity of glucose transport inhibition among human GLUTs-1, -2, -3, -4, -8 (GLUT4; HEK 293 cells over-expressing human GLUTs, 4 minute uptake of 2-DOG) | IC50 (GLUT4) | 2-DOG uptake in JJN3 cells (JJN3 cells [1]) | viable cell counts in GLUT4 knockdown cells [2] | MCL-1 expression (MCL-1) | sensitivity to ABT-199, L363 cell line (L363 cells) | sensitivity to ABT-199, JJN3 cell line (JJN3 cells [3]) | sensitization of MM patient samples to combination with dexamethasone ([4]; 0.5 μM dexamethasone and 10 μM compound 20, 48 hr) | relapse/refractory patient samples with greater apoptosis on co-treatment with ABT-199 than either drug alone ([4]; 10 μM with 0.5 μM ABT-199, 48 hrs) | sensitization to melphalan (Mel) (MM.1S cells; 10 μM with 0.01 μM-4 μM melphalan) | sensitization to dexamethasone (Dex), cell death in MM.1S (MM.1S cells; 10 μM with Dex 0.00195 μM to 1 μM) | viability of normal non-myeloma cell populations [5] | follower lung cancer cell invasion [6] | FAK activation (FAK) | IC50 (GLUT8) | H1299 cell invasion (H1299 cell) |
| --- | --- | --- | --- | --- | --- | --- | --- | --- | --- | --- | --- | --- | --- | --- | --- | --- | --- | --- | --- | --- |
| COc1ccc(CC(=O)N(Cc2ccncc2)Cc2cccc(OCCc3ccc(F)cc3)c2)cc1 [Compound 20, N-(3-(4-fluorophenethoxy)benzyl)-2-(4-methoxyphenyl)-N-(pyridin-4-ylmethyl)acetamide] | 13.4 µM | greater impact on proliferation in KMS11-GFP cells | 21.8 µM | greater cell death | selective for GLUT4 over GLUTs 1, 2, 3 and 8 | 18.2 µM | effectively reduced | no further reduction | significantly reduced | increased sensitivity to ABT-199 | increased sensitivity to ABT-199 | sensitized | 4 of 7 | sensitize | significant sensitization and cell death | did not impact the viability | inhibits follower lung cancer cell invasion | inhibits FAK activation |  |  |
| COc1ccc(C(=O)N(Cc2ccncc2)Cc2cccc(OCCc3ccc(F)cc3)c2)cc1 [Compound 26] |  |  |  |  |  | 3.5 µM |  |  |  |  |  |  |  |  |  |  |  |  | 6 µM | inhibits H1299 cell invasion |
